Reference: patent publication US6737383B1, “Herbicidal oxadiazolidines” (priority 1999, dated 2004)

Experiments:
purple nutsedge = assay: Test B pre/postemergence purple nutsedge; assay type: in vivo, Cyperus rotundus
How it was run: (§1)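 Herbicidal effect was estimated by eye on a ten-point control scale after plants spent twelve to sixteen days in a greenhouse following soil or foliar treatment. Foliar sprays targeted plants at one to four leaves; all doses were formulated in a non-phytotoxic solvent with surfactant.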

rape = assay: Test B pre/postemergence rape; assay type: in vivo, Brassica napus
How it was run: as §1

corn = assay: Test B pre/postemergence corn; assay type: in vivo, Zea mays
How it was run: as §1

soybean = assay: Test B pre/postemergence soybean; assay type: in vivo, Glycine max
How it was run: as §1

sugar beet = assay: Test B pre/postemergence sugar beet; assay type: in vivo, Beta vulgaris
How it was run: as §1

blackgrass = assay: Test B pre/postemergence blackgrass; assay type: in vivo, Alopecurus myosuroides
How it was run: as §1

bedstraw = assay: Test B pre/postemergence bedstraw; assay type: in vivo, Galium aparine
How it was run: as §1

cocklebur = assay: Test B pre/postemergence cocklebur; assay type: in vivo, Xanthium strumarium
How it was run: as §1

crabgrass = assay: Test B pre/postemergence crabgrass; assay type: in vivo, Digitaria sanguinalis
How it was run: as §1

giant foxtail = assay: Test B pre/postemergence giant foxtail; assay type: in vivo, Setaria faberii
How it was run: as §1

velvetleaf = assay: Test B pre/postemergence velvetleaf; assay type: in vivo, Abutilon theophrasti
How it was run: as §1

morningglory = assay: Test B pre/postemergence morningglory; assay type: in vivo, Ipomoea hederacea
How it was run: as §1

wheat = assay: Test B pre/postemergence wheat; assay type: in vivo, Triticum aestivum
How it was run: as §1

surinam grass = assay: Test B pre/postemergence surinam grass; assay type: in vivo, Brachiaria decumbens
How it was run: as §1

wild oat = assay: Test B pre/postemergence wild oat; assay type: in vivo, Avena fatua
How it was run: as §1

pigweed = assay: Test B pre/postemergence pigweed; assay type: in vivo, Amaranthus retroflexus
How it was run: as §1

[1] = Postemergence, Rate 31 g/ha, visual rating, scale 0 to 10 (0 no effect, 10 complete control)
[2] = Postemergence, Rate 125 g/ha, scale 0 to 10, 0 is no effect, 10 is complete control
[3] = Preemergence, Rate 62 g/ha, scale 0 to 10 (0 no effect, 10 complete control)
[4] = Preemergence, Rate 125 g/ha, scale 0 to 10, 0 is no effect, 10 is complete control
[5] = Rate 250 g/ha, Postemergence, scale of 0 to 10 where 0 is no effect and 10 is complete control
[6] = Postemergence, Rate 62 g/ha, scale of 0 to 10, 0 is no effect, 10 is complete control
[7] = Preemergence, Rate 31 g/ha, visual rating, scale 0 to 10 (0 no effect, 10 complete control)

With `CC(C)N(C(=O)n1oc(=O)n(C[Si](C)(C)C)c1=O)c1ccc(Cl)cc1` [Compound 548] the “Nutsedge plant response rating” value (purple nutsedge; [1]) was 0, the “Nutsedge plant response rating” value (purple nutsedge; [2]) was 0 and the “Nutsedge plant response rating” value (purple nutsedge; [3]) was 0. The “Nutsedge plant response rating” value (purple nutsedge; [4]) was 0, the “Nutsedge plant response rating (0 to 10 scale)” value (purple nutsedge; Preemergence, Rate 250 g/ha) was 0 and the “Plant response rating, Nutsedge” value (purple nutsedge; [5]) was 0. The “Rape plant response rating” value (rape; [1]) was 0, the “Rape plant response rating” value (rape; [2]) was 0 and the “Rape plant response rating” value (rape; [3]) was 0. For the same compound, the “Rape plant response rating” value (rape; [4]) was 0, the “Rape plant response rating (0 to 10 scale)” value (rape; Preemergence, Rate 250 g/ha) was 2 and the “Plant response rating, Rape” value (rape; [5]) was 7. For the same compound, the “Corn plant response rating” value (corn; [1]) was 0, the “Corn plant response rating” value (corn; [6]) was 0 and the “Corn plant response rating” value (corn; [2]) was 0. For the same compound, the “Corn plant response rating” value (corn; [7]) was 0, the “Corn plant response rating” value (corn; [3]) was 0 and the “Corn plant response rating” value (corn; [4]) was 0. For the same compound, the “Corn plant response rating (0 to 10 scale)” value (corn; Preemergence, Rate 250 g/ha) was 0, the “Plant response rating, Corn” value (corn; [5]) was 0 and the “Soybean plant response rating” value (soybean; [1]) was 1. The “Soybean plant response rating” value (soybean; [6]) was 2, the “Soybean plant response rating” value (soybean; [2]) was 2 and the “Soybean plant response rating” value (soybean; [3]) was 0. The “Soybean plant response rating” value (soybean; [4]) was 0, the “Soybean plant response rating (0 to 10 scale)” value (soybean; Preemergence, Rate 250 g/ha) was 0 and the “Plant response rating, Soybean” value (soybean; [5]) was 2. For the same compound, the “Sugarbeets plant response rating” value (sugar beet; [1]) was 0, the “Sugarbeets plant response rating” value (sugar beet; [6]) was 0 and the “Sugarbeets plant response rating” value (sugar beet; [2]) was 0. The “Sugarbeets plant response rating” value (sugar beet; [3]) was 0, the “Sugarbeets plant response rating” value (sugar beet; [4]) was 0 and the “Sugarbeets plant response rating (0 to 10 scale)” value (sugar beet; Preemergence, Rate 250 g/ha) was 2. The “Plant response rating, Sugarbeets” value (sugar beet; [5]) was 3, the “Blackgrass plant response rating” value (blackgrass; [1]) was 0 and the “Blackgrass plant response rating” value (blackgrass; [6]) was 0. For the same compound, the “Blackgrass plant response rating” value (blackgrass; [2]) was 0, the “Blackgrass plant response rating” value (blackgrass; [7]) was 0 and the “Blackgrass plant response rating” value (blackgrass; [3]) was 0. The “Blackgrass plant response rating” value (blackgrass; [4]) was 3, the “Blackgrass plant response rating (0 to 10 scale)” value (blackgrass; Preemergence, Rate 250 g/ha) was 3 and the “Plant response rating, Blackgrass” value (blackgrass; [5]) was 3. The “Bedstraw plant response rating” value (bedstraw; [1]) was 0, the “Bedstraw plant response rating” value (bedstraw; [6]) was 0 and the “Bedstraw plant response rating” value (bedstraw; [2]) was 4. The “Bedstraw plant response rating” value (bedstraw; [7]) was 9, the “Bedstraw plant response rating” value (bedstraw; [3]) was 8 and the “Bedstraw plant response rating” value (bedstraw; [4]) was 10. For the same compound, the “Bedstraw plant response rating (0 to 10 scale)” value (bedstraw; Preemergence, Rate 250 g/ha) was 10, the “Plant response rating, Bedstraw” value (bedstraw; [5]) was 9 and the “Cocklebur plant response rating” value (cocklebur; [1]) was 0. The “Cocklebur plant response rating” value (cocklebur; [6]) was 0, the “Cocklebur plant response rating” value (cocklebur; [2]) was 0 and the “Cocklebur plant response rating” value (cocklebur; [7]) was 0. The “Cocklebur plant response rating” value (cocklebur; [3]) was 0, the “Cocklebur plant response rating” value (cocklebur; [4]) was 0 and the “Cocklebur plant response rating (0 to 10 scale)” value (cocklebur; Preemergence, Rate 250 g/ha) was 0. For the same compound, the “Plant response rating, Cocklebur” value (cocklebur; [5]) was 0, the “Crabgrass plant response rating” value (crabgrass; [1]) was 0 and the “Crabgrass plant response rating” value (crabgrass; [2]) was 5. The “Crabgrass plant response rating” value (crabgrass; [7]) was 4, the “Crabgrass plant response rating” value (crabgrass; [3]) was 9 and the “Crabgrass plant response rating” value (crabgrass; [4]) was 9. The “Crabgrass plant response rating (0 to 10 scale)” value (crabgrass; Preemergence, Rate 250 g/ha) was 10, the “Giant foxtail plant response rating” value (giant foxtail; [1]) was 0 and the “Giant foxtail plant response rating” value (giant foxtail; [6]) was 0. The “Giant foxtail plant response rating” value (giant foxtail; [2]) was 0, the “Giant foxtail plant response rating” value (giant foxtail; [7]) was 9 and the “Giant foxtail plant response rating” value (giant foxtail; [3]) was 9. The “Giant foxtail plant response rating” value (giant foxtail; [4]) was 9, the “Giant foxtail plant response rating (0 to 10 scale)” value (giant foxtail; Preemergence, Rate 250 g/ha) was 10 and the “Plant response rating, Giant foxtail” value (giant foxtail; [5]) was 0. For the same compound, the “Velvetleaf plant response rating” value (velvetleaf; [1]) was 0, the “Velvetleaf plant response rating” value (velvetleaf; [6]) was 0 and the “Velvetleaf plant response rating” value (velvetleaf; [2]) was 0. For the same compound, the “Velvetleaf plant response rating” value (velvetleaf; [3]) was 0, the “Velvetleaf plant response rating” value (velvetleaf; [4]) was 0 and the “Velvetleaf plant response rating (0 to 10 scale)” value (velvetleaf; Preemergence, Rate 250 g/ha) was 0. The “Plant response rating, Velvetleaf” value (velvetleaf; [5]) was 0, the “Morningglory plant response rating” value (morningglory; [1]) was 1 and the “Morningglory plant response rating” value (morningglory; [6]) was 5. The “Morningglory plant response rating” value (morningglory; [3]) was 0, the “Morningglory plant response rating” value (morningglory; [4]) was 0 and the “Morningglory plant response rating (0 to 10 scale)” value (morningglory; Preemergence, Rate 250 g/ha) was 0. The “Plant response rating, Morningglory” value (morningglory; [5]) was 8, the “Wheat plant response rating” value (wheat; [1]) was 0 and the “Wheat plant response rating” value (wheat; [6]) was 0. For the same compound, the “Wheat plant response rating” value (wheat; [2]) was 0, the “Wheat plant response rating” value (wheat; [3]) was 0 and the “Wheat plant response rating” value (wheat; [4]) was 0. For the same compound, the “Wheat plant response rating (0 to 10 scale)” value (wheat; Preemergence, Rate 250 g/ha) was 0, the “Plant response rating, Wheat” value (wheat; [5]) was 2 and the “B. signalgrass plant response rating” value (surinam grass; [1]) was 0. For the same compound, the “B. signalgrass plant response rating” value (surinam grass; [6]) was 0, the “B. signalgrass plant response rating” value (surinam grass; [2]) was 0 and the “B. signalgrass plant response rating” value (surinam grass; [7]) was 0. For the same compound, the “B. signalgrass plant response rating” value (surinam grass; [3]) was 0, the “B. signalgrass plant response rating” value (surinam grass; [4]) was 2 and the “B. signalgrass plant response rating (0 to 10 scale, 0 is no effect, 10 is complete control)” value (surinam grass; Preemergence, Rate 250 g/ha) was 3. For the same compound, the “Plant response rating, B. signalgrass” value (surinam grass; [5]) was 0, the “Wild oats plant response rating” value (wild oat; [1]) was 0 and the “Wild oats plant response rating” value (wild oat; [6]) was 0. For the same compound, the “Wild oats plant response rating” value (wild oat; [2]) was 0, the “Wild oats plant response rating” value (wild oat; [3]) was 0 and the “Wild oats plant response rating” value (wild oat; [4]) was 0. For the same compound, the “Wild oats plant response rating (0 to 10 scale)” value (wild oat; Preemergence, Rate 250 g/ha) was 2, the “Plant response rating, Wild oats” value (wild oat; [5]) was 0 and the “Redroot pigweed plant response rating” value (pigweed; [1]) was 0. The “Redroot pigweed plant response rating” value (pigweed; [6]) was 0, the “Redroot pigweed plant response rating” value (pigweed; [2]) was 0 and the “Redroot pigweed plant response rating” value (pigweed; [3]) was 0. The “Redroot pigweed plant response rating” value (pigweed; [4]) was 0, the “Redroot pigweed plant response rating (0 to 10 scale)” value (pigweed; Preemergence, Rate 250 g/ha) was 2 and the “Plant response rating, Redroot pigweed” value (pigweed; [5]) was 2.
